Paper PMC5014220, “An α‐Helix‐Mimicking 12,13‐Helix: Designed α/β/γ‐Foldamers as Selective Inhibitors of Protein–Protein Interactions” (Angewandte Chemie (International Ed. in English), 2016)

Tests used:
[1] = molecular target: T1, p53/hDM2 interaction (FITC–p53_15–31 / hDM2(17-126) L33E) (Homo sapiens, UniProt Q00987, L33E); assay: Fluorescence anisotropy (FA) competition assay against p53/hDM2; type: binding; conditions: for IC50: 50 nM FITC–p53(15-31), 150 nM hDM2(17-126) L33E, 40 mM phosphate buffer pH 7.5, 200 mM NaCl, 0.02 mg mL−1 BSA, 5 % DMSO, read after 1 h at room temperature, triplicate, fit ± error; for Displacement of FITC–p53_15–31 from hDM2 (in words): same conditions, lower asymptote of the competition curve not achieved at higher concentrations, IC50 ND
T1 construct: hDM2(17-126)

α‐chymotrypsin (α‐CT) = assay: Proteolytic stability with α-chymotrypsin (HPLC); type: in vitro ADME; conditions: α-chymotrypsin type II from bovine pancreas, 1:10000 enzyme/substrate; peptide 200 μM stock in PBS pH 7.50, 2% DMSO; followed by analytical HPLC; fold versus p53_15–31
From the text: The proteolytic stability of α/β/γ‐peptides 1–8 was investigated using α‐chymotrypsin (α‐CT) as a representative protease, since this enzyme selectively hydrolyses the amide bond on the C‐terminal side of hydrophobic residues such as Leu, Trp, and Phe, all of which are present in the α/β/γ‐peptide sequences. The p53_15–31 peptide was also studied for comparison (see the Supporting Information). […] For the latter four peptides, the proteolytic activity corresponded to methyl ester hydrolysis of the C‐terminal Leu residue; in all eight cases, therefore, the hexapeptide core remained largely intact for the duration of the experiments.
IV. Proteolysis studies of peptides 1-8
α-Chymotrypsin Type II from bovine pancreas (lyophilized powder, MW = 25 kDa, ≥ 40 units/mg protein) was purchased from Sigma-Aldrich and used without further purification.
α/β/γ-Peptides and p53(15-31) peptide (200 µM stock in PBS buffer pH 7.50, 2% DMSO) were treated with α-Chymotrypsin Type II from bovine pancreas (0.02 µM stock solutions in PBS buffer pH 7.50) in a 1:10000 enzyme/substrate ratio. The degradation was followed with analytical HPLC (Ascentis® Express Peptide Column, injection volume: 20 µL, acetonitrile/water (0.1% TFA) 5-95% gradient) and the data was analysed to extract kinetic values.
1. HPLC traces of the positive control (native p53) in presence of α-Chymotrypsin
(1 picture or pasted object on this page, not shown here)

[2] = molecular target: BODIPY–BAK/Bcl‐xL protein–protein interaction (Homo sapiens, UniProt Q07817); assay: FA competition assay, BODIPY–BAK/Bcl-xL; type: binding; conditions: 50 nM BODIPY-Bak, 150 nM Bcl-xL, top concentration 222 μM, 1 h room temperature, triplicate
[3] = molecular target: T2, FITC–NOXA B/Mcl‐1 protein–protein interaction (Homo sapiens, UniProt Q07820); assay: FA competition assay, FITC–NOXA B/Mcl-1; type: binding; conditions: 50 nM FITC-NOXA B(68-87), 150 nM Mcl-1(172-327), top concentration 222 μM, 1 h room temperature, triplicate
T2 construct: Mcl-1(172-327)

Compound | IC50 [1] [µM] | Resistance to α‐CT relative to native p53_15–31 (α‐chymotrypsin (α‐CT)) [fold] | Displacement of FITC–p53_15–31 from hDM2 (in words) [1] | Inhibitory activity on BODIPY–BAK/Bcl‐xL interaction [2] | Inhibitory activity on FITC–NOXA B/Mcl‐1 interaction [3]
COC(=O)CC[C@H](CC(C)C)NC(=O)[C@H]1CC[C@@H]1NC(=O)CC[C@H](Cc1ccccc1)NC(=O)[C@H]1CC[C@@H]1NC(=O)CC[C@@H](C)NC(=O)[C@H](Cc1ccccc1)NC(=O)OC(C)(C)C [Peptide 4] | > 100 | ≥ 32 | – | – | –
COC(=O)CC[C@H](CC(C)C)NC(=O)[C@H]1CC[C@@H]1NC(=O)CC[C@H](Cc1ccccc1)NC(=O)[C@H]1CC[C@@H]1NC(=O)CC[C@@H](C)NC(=O)[C@H](Cc1ccccc1)NC(C)=O [Peptide 8] | – | – | effectively displaced FITC–p53_15–31 at micromolar concentrations | – | –
COC(=O)CC[C@H](CC(C)C)NC(=O)[C@H]1CC[C@@H]1NC(=O)CC[C@H](Cc1c[nH]c2ccccc12)NC(=O)[C@H]1CC[C@@H]1NC(=O)CC[C@@H](C)NC(=O)[C@H](Cc1ccccc1)NC(=O)OC(C)(C)C [Peptide 2] | 15 ± 2 | – | – | no inhibitory activity | no inhibitory activity
COC(=O)[C@H](CC(C)C)NC(=O)[C@H]1CC[C@@H]1NC(=O)CC[C@H](Cc1ccccc1)NC(=O)[C@H]1CC[C@@H]1NC(=O)CC[C@@H](C)NC(=O)[C@H](Cc1ccccc1)NC(=O)OC(C)(C)C [Peptide 3] | > 100 | ≥ 10 | – | – | –
COC(=O)[C@H](CC(C)C)NC(=O)[C@H]1CC[C@@H]1NC(=O)CC[C@H](Cc1c[nH]c2ccccc12)NC(=O)[C@H]1CC[C@@H]1NC(=O)CC[C@@H](C)NC(=O)[C@H](Cc1ccccc1)NC(C)=O [Peptide 5] | > 100 | ≥ 10 | – | – | –
COC(=O)[C@H](CC(C)C)NC(=O)[C@H]1CC[C@@H]1NC(=O)CC[C@H](Cc1ccccc1)NC(=O)[C@H]1CC[C@@H]1NC(=O)CC[C@@H](C)NC(=O)[C@H](Cc1ccccc1)NC(C)=O [Peptide 7] | > 100 | ≥ 10 | – | – | –
COC(=O)[C@H](CC(C)C)NC(=O)[C@H]1CC[C@@H]1NC(=O)CC[C@H](Cc1c[nH]c2ccccc12)NC(=O)[C@H]1CC[C@@H]1NC(=O)CC[C@@H](C)NC(=O)[C@H](Cc1ccccc1)NC(=O)OC(C)(C)C [Peptide 1] | 57 ± 22 | ≥ 10 | – | no inhibitory activity | no inhibitory activity
COC(=O)CC[C@H](CC(C)C)NC(=O)[C@H]1CC[C@@H]1NC(=O)CC[C@H](Cc1c[nH]c2ccccc12)NC(=O)[C@H]1CC[C@@H]1NC(=O)CC[C@@H](C)NC(=O)[C@H](Cc1ccccc1)NC(C)=O [Peptide 6] | – | ≥ 32 | effectively displaced FITC–p53_15–31 at micromolar concentrations | – | –
